“And” between values parts separate entries of the source, which are not always exact repeats. Equal values may be shown once. Where a name gives a salt, the structure may show the parent alone. Read-outs that look alike come from different tables or passages of the source.
How the values were obtained:
[1] = test system: pinch skin graft from male BALB/c donors transplanted to male C3 H(H-2K) recipients; test: pinch skin graft survival test procedure; type: in vivo, C3 H(H-2K) recipients (mice); conditions: for Skin graft survival time (mean survival time ± S.D.): 4 mg/kg, intraperitoneally or orally, untreated grafts rejected within 6-7 days
Experimental: Representative compounds of this invention were also evaluated in an in vivo test procedure designed to determine the survival time of pinch skin graft from male BALB/c donors transplanted to male C3 H(H-2K) recipients. […] Briefly, a pinch skin graft from the donor was grafted on the dorsum of the recipient as a allograft, and an isograft was used as control in the same region. The recipients were treated with either varying concentrations of test compounds intraperitoneally or orally. Rapamycin was used as a test control. Untreated recipients serve as rejection control. The graft was monitored daily and observations were recorded until the graft became dry and formed a blackened scab. This was considered as the rejection day. The mean graft survival time (number of days±S.D.) of the drug treatment group was compared with the control group. […] Results are expressed as the mean survival time in days. Untreated (control) pinch skin grafts are usually rejected within 6-7 days. Compounds were tested using a dose of 4 mg/kg.

[2] = test system: thymus cells of normal BALB/c mice (PHA and IL-1 induced lymphocyte proliferation); test: comitogen-induced thymocyte proliferation procedure (LAF); type: cell-based; conditions: for IC50: read-out: LAF IC50
Experimental: (§1) Immunosuppressive activity for representative compounds of this invention was evaluated in an in vitro standard pharmacological test procedure to measure lymphocyte proliferation (LAF) and in three in vivo standard pharmacological test procedures. The pinch skin graft test procedure measures the immunosuppressive activity of the compound tested as well as the ability of the compound tested to inhibit or treat transplant rejection. The adjuvant arthritis standard pharmacological test procedure, which measures the ability of the compound tested to inhibit immune mediated inflammation. The adjuvant arthritis test procedure is a standard pharmacological test procedure for rheumatoid arthritis. Representative compounds of this invention were also evaluated in a heart allograft standard pharmacological test procedure which measures immunosuppressive activity of the compound tested as well as the ability of the compound tested to inhibit or treat transplant rejection. The procedures for these standard pharmacological test procedures are provided below.
The comitogen-induced thymocyte proliferation procedure (LAF) was used as an in vitro measure of the immunosuppressive effects of representative compounds. Briefly, cells from the thymus of normal BALB/c mice are cultured for 72 hours with PHA and IL-1 and pulsed with tritiated thymidine during the last six hours. Cells are cultured with and without various concentrations of rapamycin, cyclosporin A, or test compound. Cells are harvested and incorporated radioactivity is determined. Inhibition of lymphoproliferation is assessed as percent change in counts per minute from non-drug treated controls. For each compound evaluated, rapamycin was also evaluated for the purpose of comparison. An IC50 was obtained for each test compound as well as for rapamycin. […] The results obtained are provided as an IC50.

[3] = test system: Freud's Complete Adjuvant induced arthritis in rats; test: adjuvant arthritis standard pharmacological test procedure; type: in vivo, male inbread Wistar Lewis rats; conditions: 5 mg/kg oral, 7 doses, day 16; more negative = more potent
Experimental: as §1, with “The procedures for these standard pharmacological test procedures are provided below.” left out
The adjuvant arthritis standard pharmacological test procedure measures the ability of test compounds to prevent immune mediated inflammation and inhibit or treat rheumatoid arthritis. […] Both hind paws are measured on days 16, 23, and 30. The difference in paw volume (mL) from day 16 to day 0 is determined and a percent change from control is obtained. […]

[4] = test system: heart allograft from BN rat neonate donors in Lewis rats; test: heterotropic heart allograft standard pharmacological test procedure; type: in vivo; conditions: 300 μg/day, i.p.; untreated allografts rejected in about 9-10 days
Experimental: as §1
The ability of the compounds of this invention to induce immunosuppression and inhibit or treat transplantation rejection was evaluated in a heterotropic heart allograft standard pharmacological test procedure that emulates transplantation rejection that occurs in humans. The following briefly describes the procedure that was used. […]

[5] = test system: adjuvant arthritis; conditions: model for rheumatoid arthritis; cited from earlier work
[6] = test system: IgE-like antibodies; conditions: cited from earlier work
[7] = test system: Candida albicans; conditions: in vitro and in vivo, particularly against Candida albicans; cited from earlier work
[8] = test system: experimental allergic encephalomyelitis; conditions: model for multiple sclerosis; cited from earlier work
[9] = thymocytes cultured 72 hours with PHA and IL-1, tritiated thymidine last six hours
[10] = thymocytes cultured 72 hours with PHA and IL-1, tritiated thymidine last six hours, hydrochloride salt
[11] = thymocytes cultured 72 hours with PHA and IL-1, tritiated thymidine last six hours, maleate salt

CO[C@H]1C[C@@H]2CC[C@@H](C)[C@@](O)(O2)C(=O)C(=O)N2CCCC[C@H]2C(=O)O[C@H]([C@H](C)C[C@@H]2CCC(=O)[C@H](OC)C2)CC(=O)[C@H](C)/C=C(\C)[C@@H](OC(=O)CN(C)C)[C@@H](OC)C(=O)[C@H](C)C[C@H](C)/C=C/C=C/C=C/1C [Example 1, 42-Oxorapamycin-31-ester with 31-N,N-dimethylglycine]
Skin graft survival time (mean survival time ± S.D.) [1]: 9.6 ± 0.9 days | IC50 [2, 9]: 9.7 nM

CO[C@H]1C[C@@H]2CC[C@@H](C)[C@@](O)(O2)C(=O)C(=O)N2CCCC[C@H]2C(=O)O[C@H]([C@H](C)C[C@@H]2CCC(=O)[C@H](OC)C2)CC(=O)[C@H](C)/C=C(\C)[C@@H](OC(=O)CN(C)C)[C@@H](OC)C(=O)[C@H](C)C[C@H](C)/C=C/C=C/C=C/1C [Example 2, 42-Oxorapamycin-31-ester with 31-N,N-dimethylglycine hydrochloride salt]
Skin graft survival time (mean survival time ± S.D.) ([1]; hydrochloride salt): 10.0 ± 0.0 days and 10.3 ± 0.5 days | IC50 [2, 10]: 23.4 nM

CO[C@H]1C[C@@H]2CC[C@@H](C)[C@@](O)(O2)C(=O)C(=O)N2CCCC[C@H]2C(=O)O[C@H]([C@H](C)C[C@@H]2CCC(=O)[C@H](OC)C2)CC(=O)[C@H](C)/C=C(\C)[C@@H](OC(=O)CN(C)C)[C@@H](OC)C(=O)[C@H](C)C[C@H](C)/C=C/C=C/C=C/1C [Example 3, 42-Oxorapamycin-31-ester with 31-N,N-dimethylglycine maleate salt]
Skin graft survival time (mean survival time ± S.D.) ([1]; maleate salt): 9.2 ± 1.3 days | IC50 [2, 11]: 14.4 nM

CO[C@H]1C[C@@H]2CC[C@@H](C)[C@@](O)(O2)C(=O)C(=O)N2CCCC[C@H]2C(=O)O[C@H]([C@H](C)C[C@@H]2CC[C@@H](OC(=O)C(C)(C)NC(=O)OCC3c4ccccc4-c4ccccc43)[C@H](OC)C2)CC(=O)[C@H](C)/C=C(\C)[C@@H](O)[C@@H](OC)C(=O)[C@H](C)C[C@H](C)/C=C/C=C/C=C/1C [Example 4, Rapamycin 42-ester with 2-(9H-fluoren-9-ylmethoxycarbonylamino)-2-methylpropionic acid]
Skin graft survival time (mean survival time ± S.D.) [1]: 11.7 ± 0.8 days and 14.2 ± 0.6 days | immunosuppressive activity in the skin graft procedure (in words) ([1]; mouse, in vivo): shown to have immunosuppressive activity | immunosuppressive activity in the LAF procedure (in words) [2]: shown to have immunosuppressive activity

CO[C@H]1C[C@@H]2CC[C@@H](C)[C@@](O)(O2)C(=O)C(=O)N2CCCC[C@H]2C(=O)O[C@H]([C@H](C)C[C@@H]2CC[C@@H](OC(=O)C(C)(C)N)[C@H](OC)C2)CC(=O)[C@H](C)/C=C(\C)[C@@H](O)[C@@H](OC)C(=O)[C@H](C)C[C@H](C)/C=C/C=C/C=C/1C [Example 5, Rapamycin 42-ester with 2-amino-2-methylpropionic acid]
Skin graft survival time (mean survival time ± S.D.) [1]: 12.3 ± 1.0 days and 11.8 ± 1.3 days

CO[C@H]1C[C@@H]2CC[C@@H](C)[C@@](O)(O2)C(=O)C(=O)N2CCCC[C@H]2C(=O)O[C@H]([C@H](C)C[C@@H]2CC[C@@H](OC(=O)C(C)(C)N)[C@H](OC)C2)CC(=O)[C@H](C)/C=C(\C)[C@@H](O)[C@@H](OC)C(=O)[C@H](C)C[C@H](C)/C=C/C=C/C=C/1C [Example 6, Rapamycin 42-ester with 2-amino-2-methylpropionic acid maleate salt]
Skin graft survival time (mean survival time ± S.D.) ([1]; maleate salt): 12.0 ± 0.0 days and 11.0 ± 0.9 days | Percent change in adjuvant arthritis versus control (uninjected paw) [3]: -73% | IC50 [2, 11]: 5.3 nM and 8.4 nM | Heart allograft survival time (mean) [4]: 19.11 days

CO[C@H]1C[C@@H]2CC[C@@H](C)[C@@](O)(O2)C(=O)C(=O)N2CCCC[C@H]2C(=O)O[C@H]([C@H](C)C[C@@H]2CC[C@@H](OC(=O)C(C)(C)N)[C@H](OC)C2)CC(=O)[C@H](C)/C=C(\C)[C@@H](O)[C@@H](OC)C(=O)[C@H](C)C[C@H](C)/C=C/C=C/C=C/1C [Example 7, Rapamycin 42-ester with 2-amino-2,-methylpropionic acid hydrochloride salt]
Skin graft survival time (mean survival time ± S.D.) ([1]; hydrochloride salt): 10.2 ± 1.2 days | IC50 [2, 10]: 3.9 nM

CO[C@H]1C[C@@H]2CC[C@@H](C)[C@@](O)(O2)C(=O)C(=O)N2CCCC[C@H]2C(=O)O[C@H]([C@H](C)C[C@@H]2CC[C@@H](OC(=O)C3(N)CCCC3)[C@H](OC)C2)CC(=O)[C@H](C)/C=C(\C)[C@@H](O)[C@@H](OC)C(=O)[C@H](C)C[C@H](C)/C=C/C=C/C=C/1C [Example 10, Rapamycin 42-ester with 1-aminocyclopentane carboxylic acid]
Skin graft survival time (mean survival time ± S.D.) [1]: 10.5 ± 0.6 days and 10.2 ± 1.0 days | IC50 [2, 9]: 6 nM

CO[C@H]1C[C@@H]2CC[C@@H](C)[C@@](O)(O2)C(=O)C(=O)N2CCCC[C@H]2C(=O)O[C@H]([C@H](C)C[C@@H]2CC[C@@H](OC(=O)C3(N)CCCC3)[C@H](OC)C2)CC(=O)[C@H](C)/C=C(\C)[C@@H](O)[C@@H](OC)C(=O)[C@H](C)C[C@H](C)/C=C/C=C/C=C/1C [Example 11, Rapamycin 42-ester with 1-aminocyclopentane carboxylic acid hydrochloride salt]
Skin graft survival time (mean survival time ± S.D.) ([1]; hydrochloride salt): 10.3 ± 0.5 days and 11.5 ± 0.8 days and 12.3 ± 1.0 days | IC50 [2, 10]: 0.63 nM

CO[C@H]1C[C@@H]2CC[C@@H](C)[C@@](O)(O2)C(=O)C(=O)N2CCCC[C@H]2C(=O)O[C@H]([C@H](C)C[C@@H]2CC[C@@H](OC(=O)C3(N)CCCCC3)[C@H](OC)C2)CC(=O)[C@H](C)/C=C(\C)[C@@H](O)[C@@H](OC)C(=O)[C@H](C)C[C@H](C)/C=C/C=C/C=C/1C [Example 14, Rapamycin 42-ester with 1-aminocyclohexane carboxylic acid]
Skin graft survival time (mean survival time ± S.D.) [1]: 10.6 ± 0.5 days and 12.4 ± 1.1 days

CO[C@H]1C[C@@H]2CC[C@@H](C)[C@@](O)(O2)C(=O)C(=O)N2CCCC[C@H]2C(=O)O[C@H]([C@H](C)C[C@@H]2CC[C@@H](OC(=O)C3(N)CCCCC3)[C@H](OC)C2)CC(=O)[C@H](C)/C=C(\C)[C@@H](O)[C@@H](OC)C(=O)[C@H](C)C[C@H](C)/C=C/C=C/C=C/1C [Example 15, Rapamycin 42-ester with 1-aminocyclohexane carboxylic acid hydrochloride salt]
Skin graft survival time (mean survival time ± S.D.) ([1]; hydrochloride salt): 11.5 ± 1.2 days and 11.2 ± 0.8 days | IC50 [2, 10]: 0.7 nM and 0.4 nM

CO[C@H]1C[C@@H]2CC[C@@H](C)[C@@](O)(O2)C(=O)C(=O)N2CCCC[C@H]2C(=O)O[C@H]([C@H](C)C[C@@H]2CC[C@@H](O)[C@H](OC)C2)CC(=O)[C@H](C)/C=C(\C)[C@@H](O)[C@@H](OC)C(=O)[C@H](C)C[C@H](C)/C=C/C=C/C=C/1C [rapamycin]
effect in the adjuvant arthritis model (in words) [5]: effective | formation of IgE-like antibodies (in words) [6]: effectively inhibited | IC50 ([2]; Mus musculus, Lymphocyte): 0.4 to 6.8 nM | antifungal activity (in words) [7]: antifungal activity | effect in the experimental allergic encephalomyelitis model (in words) [8]: effective
